This is an account of results in ChEMBL document CHEMBL1146105, “Synthesis and analgesic activity of secondary amine analogues of pyridylmethylamine and positional isomeric analogues of ABT-594” (Bioorg Med Chem Lett, 2006).

SMILES strings stand for the structures.

Data set [1] can be described thus: Toxicity in […] at 20 mg/kg, sc assessed as rate of death. It is filed as organism-based. Also noted: dose 20 mg/kg, route subcutaneous. As to conditions: in vivo, read-out: Activity.
Data set [2] has as its system Mus musculus. Put plainly: Analgesic activity in mice at 20 mg/kg, sc by acetic acid writhing test. It is filed as functional. As to conditions: route subcutaneous. A general note: Writhing tests count abdominal constrictions after an irritant is injected.
Data set [3] relates to Mus musculus. Put plainly: Analgesic activity in mice at 10 mg/kg, sc by acetic acid writhing test. As to conditions: route subcutaneous. It is filed as functional.
A short description of data set [4]: Toxicity in […] at 10 mg/kg, sc assessed as rate of death. The data set is classed as organism-based. Set-up: dose 10 mg/kg, route subcutaneous. As to conditions: in vivo, read-out: Activity.
In data set [5] the test system is Mus musculus. The data set can be described thus: Analgesic activity in mice at 5 mg/kg, sc by acetic acid writhing test. As to conditions: read-out: Inhibition.
Data set [6] can be described thus: Toxicity in rat at 5 mg/kg, sc assessed as rate of death. As to conditions: in vivo.

`c1cncc(NCC2CO2)c1` (centres undefined): the mortality in data set [1] is 0%. Further, the inhibition in vivo at 20 mg/kg with Mus musculus [2] turned out to be 0%.

As for `c1cncc(CNCCC2CCCO2)c1` (centres undefined), the mortality in data set [1] and in data set [4] was 0% each time. In the data set on Mus musculus [3], this compound registered an inhibition in vivo at 10 mg/kg of 56%. The compound also registered an inhibition in vivo at 20 mg/kg with Mus musculus [2] of 23%.

With `Clc1ccc(NCC2CO2)cn1` (centres undefined), in data set [1], the mortality is 0%. In addition, the inhibition in vivo at 20 mg/kg in the data set with Mus musculus [2] was found to be 20.5%.

As to `CN1CCC[C@H]1c1cccnc1` [NICOTINE], the mortality is 100% in data set [1], 50% in data set [4] and 25% in data set [6]. Moreover, in the data set with Mus musculus [3], the inhibition in vivo at 10 mg/kg was determined as 100%. In addition, the inhibition in vivo at 5 mg/kg in the data set on Mus musculus [5] is 88%.

In the case of `Clc1ccc(NCC2CCCO2)cn1` (centres undefined), the mortality in data set [1] came out at 0%. Further, the inhibition in vivo at 20 mg/kg with Mus musculus [2] amounted to 0%.

For `Clc1ccc(CNCCc2ccco2)cn1`, the mortality in data set [1] and in data set [4] was 0% throughout. Further, the inhibition in vivo at 10 mg/kg in the data set with Mus musculus [3] worked out at 41%. The compound also showed an inhibition in vivo at 20 mg/kg in the data set on Mus musculus [2] of 46%.

Consider `c1ccc(CNC2CCCC2)nc1`, for which the mortality in data set [1] worked out at 0%. This compound also showed an inhibition in vivo at 20 mg/kg with Mus musculus [2] of 0%.

As to `Clc1ccc(CNCCC2CCCO2)cn1` (centres undefined), the mortality in data set [1] amounted to 0%. In addition, the inhibition in vivo at 20 mg/kg in the data set on Mus musculus [2] amounted to 35%.

As for `Clc1ccc(CNC2CCCC2)cn1`, the mortality in data set [1] and in data set [4] was 0% throughout. In the data set with Mus musculus [3], the inhibition in vivo at 10 mg/kg turned out to be 37%. The same compound returned an inhibition in vivo at 20 mg/kg in the data set on Mus musculus [2] of 66%.

For `c1cncc(CNCCc2ccco2)c1`, the mortality in data set [1] and in data set [4] was 0% in each case. Moreover, in the data set on Mus musculus [3], the inhibition in vivo at 10 mg/kg was 0%. This compound also registered an inhibition in vivo at 20 mg/kg with Mus musculus [2] of 50%.

In the case of `c1cncc(CNC2CCCC2)c1`, the mortality in data set [1] and in data set [4] was 0% in each case. Moreover, the inhibition in vivo at 10 mg/kg in the data set on Mus musculus [3] was 0%. For the same compound, in the data set with Mus musculus [2], the inhibition in vivo at 20 mg/kg was 61%.

`c1ccc(NCCc2ccco2)nc1`: the mortality in data set [1] was 0%. The compound further yielded an inhibition in vivo at 20 mg/kg with Mus musculus [2] of 0%.

Regarding `c1ccc(NCCC2CCCO2)nc1` (centres undefined), in data set [1], the mortality stood at 0%. In the data set with Mus musculus [2], the inhibition in vivo at 20 mg/kg is 0%.
